Results from patent US20020004058A1, “Immunomodulating and antiinflammatory agent” (priority 1993, published 2002).

Legend:
[1] = test system: anti-TNP antibody production; test: Production of a TNP-specific antibody (anti-TNP IgM and IgG, ELISA) in mice sensitized with TNP-SRBC; type: in vivo, male BALB/c mice; settings: hypodermic injection four days from sensitization
Protocol: (§1) Trinitrobenzenesulfonic acid (TNBS) was dissolved in a physiological saline solution buffered with phosphoric acid to prepare a solution (40 mg/7.0 ml; pH 7.2) and then 1 ml of sheep red cell pellets was dropped thereinto with stirring. The mixture was allowed to stand at room temperature with stirring for several times under a light-shielding state and washed with a physiological saline solution three times. Then it was centrifuged at 3,000 rpm for five minutes and made into a solution of 5×10^9 cells/ml using a physiological saline solution.
TNP-SRBC (10^9 cells) was intraperitoneally administered to male BALB/c mice of six to eight weeks age and the anti-TNP antibody in serum was measured by an enzymatic immunoassay (ELISA) using a dinitrophenyl-bovine serum albumin (DNP-BSA).
(§2) The above-mentioned test system was used for checking the action of: (a) the histamine-added mouse gamma-globulin (150 mg/kg/day) (the product of the present invention), (b) cyclosporin A (100 mg/kg/day), (c) cyclophosphamide (100 mg/kg/day), (d) prednisolone ([…]) and (e) levamizole (5 mg/kg/day) towards the anti-TNP antibody production and to the TNP-specific DTH reaction. The drugs were administered by hypodermic injection four days from the sensitization with TNP-SRBC.

[2] = test system: TNP-specific DTH reaction; test: TNP-specific DTH reaction (paw swelling) in mice sensitized with TNP-SRBC; type: in vivo, male BALB/c mice; settings: for Swelling in Paws After 24 Hrs.: difference right/left paw 24 hours after TNB induction on day 14; for Swelling in Paws After 24 Hrs. / Swelling in Paws After 48 Hrs.: drugs by hypodermic injection four days from sensitization; for Swelling in Paws After 48 Hrs.: difference right/left paw 48 hours after TNB induction on day 14; for action to the delayed type hypersensitivity (DTH), in words: hypodermic injection four days from sensitization
Protocol: as §1
The mice were sensitized with TNP-SRBC as described in paragraph (2) above. On the 14th day, 0.025 ml of TNB (4.7 mg/ml) was injected into the right hind paw to induce a TNP-specific DTH reaction. After 24 hours and 48 hours from the induction, the thickness of both paws was measured using a dial gauge. The difference in the thickness between the right and left paws was expressed as the intensity of the DTH reaction. […] This measuring system for the DTH reaction can be subjected to further tests using the same mice as in the case of the antibody production system of paragraph (2) above.
as §2

[3] = test system: eosinophils exudated to peritoneum; test: Hypereosinophilic model induced by ragweed pollen antigen; type: in vivo, female BALB/c mice
Protocol: A ragweed pollen extract (which was diluted to an extent of 1,000 times using a physiological saline solution) was hypodermically injected into female BALB/c mice of six to eight weeks age for sensitization at the dose of 0.1 ml on the initiation day and on the first day and 0.2 ml on the sixth, eighth and fourteenth days. On the twentieth day, 0.2 ml of a 1,000 times diluted ragweed antigen was intraperitoneally injected into the mice to induce the reaction. On the 24th hour after the induction, the peritoneal exudate cells were recovered and subjected to a Giemsa staining and the total cell numbers, number of eosinophils, number of neutrophils and number of mononuclear cells were counted. As a result, the number of the eosinophils peaked 24 hours after the induction. […] The above-mentioned hypereosinophilic models were used for checking the action towards the hypereosinophilicity by a hypodermic injection of the product of the present invention. Thus, histamine-added mouse gamma-globulin, at a dose of 3 mg/mouse/day twice a week for three weeks was administered until the induced day. Further tests were conducted by administering the corresponding amount of each of histamine (dihydrochloride) and mouse gamma-globulin which are the constituting components of the histamine-added mouse gamma-globulin.

[4] = test system: eosinophils exudated to peritoneum; test: Hypereosinophilic model induced by platelet activating factor (PAF); type: in vivo, female BALB/c mice
Protocol: A PAF (5 micrograms/200 microliters) was intraperitoneally injected into female BALB/c mice of six to eight weeks age to induce the reaction. After 24 hours from the induction, the peritoneal exudate cells were recovered and the number of the eosinophils were counted.

Compound: O=P1(N(CCCl)CCCl)NCCCO1 (stereo not shown) [Cyclophosphamide, cyclophosphamide]
- action upon anti-TNP IgG antibody production (FIG. 2), in words [1]: significantly suppressed
- action upon anti-TNP IgM antibody production (FIG. 1), in words [1]: significantly suppressed
- Swelling in Paws After 24 Hrs. [2]: 13.3 ± 2.1 ×10^−2 mm
- Swelling in Paws After 48 Hrs. [2]: 15.8 ± 2.4 ×10^−2 mm
- action to the delayed type hypersensitivity (DTH), in words [2]: clear suppressive actions

Compound: Cl.Cl.NCCc1c[nH]cn1 [Histamine, histamine (dihydrochloride)]
- Number of Eosinophils Exudated to Peritoneum ([3]; ragweed antigen induced, 24 h after induction, product 3 mg/mouse/day s.c. twice a week for three weeks, components in corresponding amount, cyclosporin A 100 mg/kg/day three days): 3.4 ± 0.6 ×10^5 cells
- suppression of eosinophil exudation into peritoneum, ragweed pollen antigen model, in words ([3]; twice a week for three weeks until the induced day): not observed
- Number of Exudated Eosinophils to Peritoneum ([4]; PAF 5 micrograms i.p., 24 hours after induction): 2.2 ± 0.8 ×10^5 cells
- suppressive action upon hypereosinophilicity induced by PAF, in words ([4]; same manner of administration as ragweed model): not observed

Compound: c1ccc([C@H]2CN3CCSC3=N2)cc1 [Lavamizole, levamizole]
- action upon anti-TNP IgG antibody production (FIG. 2), in words [1]: did not significantly affect
- action upon anti-TNP IgM antibody production (FIG. 1), in words [1]: did not significantly affect
- Swelling in Paws After 24 Hrs. [2]: 40.0 ± 6.5 ×10^−2 mm
- Swelling in Paws After 48 Hrs. [2]: 20.0 ± 5.0 ×10^−2 mm
- action to the delayed type hypersensitivity (DTH), in words [2]: no significant effect

Compound: C[C@]12C=CC(=O)C=C1CC[C@@H]1[C@@H]2[C@@H](O)C[C@@]2(C)[C@H]1CC[C@]2(O)C(=O)CO [Prednisolone, prednisolone]
- action upon anti-TNP IgG antibody production (FIG. 2), in words [1]: did not significantly affect
- action upon anti-TNP IgM antibody production (FIG. 1), in words [1]: did not significantly affect
- Swelling in Paws After 24 Hrs. [2]: 30.0 ± 5.6 ×10^−2 mm
- Swelling in Paws After 48 Hrs. [2]: 8.3 ± 3.3 ×10^−2 mm
- action to the delayed type hypersensitivity (DTH), in words [2]: weak suppressive action
